Reference: patent publication US12589143B2, “Human anti-PD-L1 peptide vaccines and methods of their use” (priority 2019, dated 2026)
Where “and” joins values, the source holds several entries; their conditions need not be identical. Equal values may be shown once. Where no end group is shown, it is not given here.

System: MVF-PD-L1 peptide immunogen
Experiment: Immunogenicity in Balb/c mice, experiment 2 (CT26/HER-2): ELISA of sera vs each MVF-PD-L1 peptide immunogen
Assay type: in vivo
Protocol: Immunogenicity of MVF-PD-L1 B-cell epitopes. New Zealand White rabbits were immunized with 1 mg of each MVF-peptide immunogens dissolved in dd H2O emulsified (1:1) in Montanide ISA 720 vehicle (Seppic) with 333 μg of N-acetylglucosamine-3yl-acetyl-1-alanyl-d-isoglutamine (nor-MDP). Rabbits were boosted with the same doses at 3-week's intervals. Blood was collected via the central auricular artery in rabbits. Blood was collected weekly (1Y+3, 2Y+1, 2Y+2,2Y+3, 3Y+1, 3Y+2 and sera tested for antibody titers by ELISA using the immunogens MVF-PD-L1 peptides. Sera (terminal) from rabbit (3Y+3) immunized with MVF-PD-1 peptide immunogens were tested individually versus the immunogen by ELISA. 200 ng/well peptide were used in duplicates to coat the ELISA plates. Titers are defined as the highest dilution of sera with an absorbance value of 0.2 after subtracting the blank. […]
In order to verify the efficacy of the PD-L1 epitope vaccines in vivo in the CT26/HER-2 carcinoma cell line, Balb/c mice (10 mice/group) were immunized with 100 μg each of MVF-PD-L1 (36-53), MVF-PD-L1 (50-67), MVF-PD-L1 (95-112) and MVF-PD-L1 (130-147) emulsified with nor-MDP and Montanide 720 (1:1 ratio) SCHEME 2A (FIG. 15A). As detailed in SCHEME 2A-D (FIGS. 15A, 15B, 15C, and 15D), mice were immunized 3 times at 3 weeks intervals. […] All PD-L1 epitopes elicited high titers of PD-L1 anti-peptide antibodies by ELISA. […] We also investigated the combination of PD-1(92-110) with PD-L1-95.
For each peptide, vaccine antibodies were raised in New Zealand white rabbits, purchased from Charles River Laboratories (Wilmington, MA, USA). Rabbits were immunized with 1 mg of MVF chimeric peptide emulsified in Montanide ISA 720 (Seppic, Paris, France) and boosted 3 times at three week intervals. For mouse experiments, mice, 6-8 weeks old, were immunized with 0.1 mg of peptide emulsified in ISA720 (1:1 ratio). Mice were boosted with the respective doses at 3-week intervals. Blood was then collected and sera were tested for antibody titers. Sera were collected weekly and peptide vaccine antibodies were purified by affinity chromatography using a protein A/G column and the concentration was measured using Spectrophometer. All experiments were performed in accordance with the U.S. Public Health Service Policy on Humane Care and Use of Laboratory animals and approved by the Ohio State University Institutional Animals Care and Use Committee, detailed in the accepted protocol.
6-8 weeks old BALB/c mice (Charles River, Wilmington, MA) were used as standard animal models. Mouse CT26 colon carcinoma cell line was purchased from American Type Culture Collection Cells and were regularly cultured in RPMI1640 medium containing 10% FBS. CT26/HER2 cells were kindly provided by M. Penichet. Vaccines were dissolved in sterile water and emulsified in Montanide ISA 720 (1:1). Female Balb/c mice (Charles River Laboratories) at the age of 6-8 weeks were immunized three times at 3-week intervals with 100 μg of each peptide vaccine, and 2 weeks after the third immunization, the mice were challenged with CT26 and/or CT26/HER-2 tumor cells, which were implanted subcutaneously (s.c) on the right flank (1×10^5 per mouse). 200 μg of rat α-mouse PD-L1 mAb 10F.9G2 (Bio X Cell, West Lebanon, NH) were administered intraperitoneally (i.p.), twice weekly following tumor inoculation in the control group. Mice were monitored and scored for the formation of palpable tumors on a daily basis and sacrificed if tumors became necrotic or exceeded the predetermined size of 2,000 mm^3. Tumor volumes were measured in cubic millimeters with calipers and calculated with the following formula: A×B^2×0.5, where A is the largest diameter, and B is the widest point perpendicular to length. During immunization, blood was drawn weekly and used in ELISA to monitor antibody titers.

KLLSLIKGVIVHRLEGVEGPSLFVHGEEDLKVQHSSYRQR (KLLSLIKGVIVHRLEGVEGPSLFVHGEEDLKVQHSSYRQR-NH2) [PD-L1(50)]
Immunogenicity (titers) 1′ Conc. 1: (Balb/c mice, bleed 1Y + 3): 6400 | Immunogenicity (titers) 1′ Conc. 1: (Balb/c mice, bleed 2Y + 1): 25600 | Immunogenicity (titers) 1′ Conc. 1: (Balb/c mice, bleed 2Y + 2): 128000 | Immunogenicity (titers) 1′ Conc. 1: (Balb/c mice, bleed 2Y + 3): 128000 | Immunogenicity (titers) 1′ Conc. 1: (Balb/c mice, bleed 3Y + 1): 128000 | Immunogenicity (titers) 1′ Conc. 1: (Balb/c mice, bleed 3Y + 2): 256000 | Immunogenicity (titers) 1′ Conc. 1: (Balb/c mice, bleed 3Y + 3): 256000

KLLSLIKGVIVHRLEGVEGPSLLIVYWEMEDKNIIQFVHG (KLLSLIKGVIVHRLEGVEGPSLLIVYWEMEDKNIIQFVHG-NH2) [PD-L1(36)]
Immunogenicity (titers) 1′ Conc. 1: (Balb/c mice, bleed 1Y + 3): 0 | Immunogenicity (titers) 1′ Conc. 1: (Balb/c mice, bleed 2Y + 1): 1600 | Immunogenicity (titers) 1′ Conc. 1: (Balb/c mice, bleed 2Y + 2): 4000 | Immunogenicity (titers) 1′ Conc. 1: (Balb/c mice, bleed 2Y + 3): 32000 | Immunogenicity (titers) 1′ Conc. 1: (Balb/c mice, bleed 3Y + 1): 16000 | Immunogenicity (titers) 1′ Conc. 1: (Balb/c mice, bleed 3Y + 2): 32000 | Immunogenicity (titers) 1′ Conc. 1: (Balb/c mice, bleed 3Y + 3): 16000

KLLSLIKGVIVHRLEGVEGPSLVTSEHELTCQAEGYPKAE (KLLSLIKGVIVHRLEGVEGPSLVTSEHELTCQAEGYPKAE-NH2) [PD-L1(130)]
Immunogenicity (titers) 1′ Conc. 1: (bleed 1Y + 3, (1to100)): 1600 | ELISA plate reading of serum (bleed 1Y + 3, (1to100), dilution 800, duplicate wells): 0.449 and 0.439 | ELISA plate reading of serum (bleed 1Y + 3, (1to100), dilution 1,600, duplicate wells): 0.262 and 0.245 | ELISA plate reading of serum (bleed 1Y + 3, (1to100), dilution 6,400, duplicate wells): 0.072 and 0.050 | ELISA plate reading of serum (bleed 1Y + 3, (1to100), dilution 12,800, duplicate wells): 0.040 and 0.030 | ELISA plate reading of serum (bleed 1Y + 3, (1to100), dilution row 100, duplicate wells): 1.023 and 1.039 | ELISA plate reading of serum (bleed 1Y + 3, (1to100), dilution row 200, duplicate wells): 0.861 and 0.849 | ELISA plate reading of serum (bleed 1Y + 3, (1to100), dilution row 400, duplicate wells): 0.671 and 0.672 | ELISA plate reading of serum (bleed 1Y + 3, (1to100), dilution row 3,200, duplicate wells): 0.148 and 0.110 | Immunogenicity (titers) 1′ Conc. 1: (bleed 2Y + 1, (1to100)): 6400 | ELISA plate reading of serum (bleed 2Y + 1, (1to100), dilution 800, duplicate wells, bleed 2Y + 1): 1.118 and 1.079 | ELISA plate reading of serum (bleed 2Y + 1, (1to100), dilution 1,600, duplicate wells, bleed 2Y + 1): 0.819 and 0.774 | ELISA plate reading of serum (bleed 2Y + 1, (1to100), dilution 6,400, duplicate wells, bleed 2Y + 1): 0.311 and 0.286 | ELISA plate reading of serum (bleed 2Y + 1, (1to100), dilution 12,800, duplicate wells, bleed 2Y + 1): 0.175 and 0.162 | ELISA plate reading of serum (bleed 2Y + 1, (1to100), dilution row 100, duplicate wells, bleed 2Y + 1): 1.606 and 1.563 | ELISA plate reading of serum (bleed 2Y + 1, (1to100), dilution row 200, duplicate wells, bleed 2Y + 1): 1.477 and 1.479 | ELISA plate reading of serum (bleed 2Y + 1, (1to100), dilution row 400, duplicate wells, bleed 2Y + 1): 1.378 and 1.347 | ELISA plate reading of serum (bleed 2Y + 1, (1to100), dilution row 3,200, duplicate wells, bleed 2Y + 1): 0.516 and 0.492 | Immunogenicity (titers) 1′ Conc. 1: (bleed 2Y + 2, (1to1k)): 16000 | ELISA plate reading of serum (bleed 2Y + 2, (1to1k), dilution 800, duplicate wells): 0.407 and 0.427 | ELISA plate reading of serum (bleed 2Y + 2, (1to1k), dilution 1,600, duplicate wells): 0.280 and 0.257 | ELISA plate reading of serum (bleed 2Y + 2, (1to1k), dilution 6,400, duplicate wells): 0.064 and 0.061 | ELISA plate reading of serum (bleed 2Y + 2, (1to1k), dilution row 100, duplicate wells): 1.476 and 1.437 | ELISA plate reading of serum (bleed 2Y + 2, (1to1k), dilution row 200, duplicate wells): 1.131 and 1.086 | ELISA plate reading of serum (bleed 2Y + 2, (1to1k), dilution row 400, duplicate wells): 0.767 and 0.735 | ELISA plate reading of serum (bleed 2Y + 2, (1to1k), dilution row 3,200, duplicate wells): 0.145 and 0.132 | Immunogenicity (titers) 1′ Conc. 1: (bleed 2Y + 3, (1to1k)): 64000 | ELISA plate reading of serum (bleed 2Y + 3, (1to1k), dilution 800, duplicate wells): 1.024 and 0.946 | ELISA plate reading of serum (bleed 2Y + 3, (1to1k), dilution 1,600, duplicate wells): 0.699 and 0.615 | ELISA plate reading of serum (bleed 2Y + 3, (1to1k), dilution 6,400, duplicate wells): 0.246 and 0.233 | ELISA plate reading of serum (bleed 2Y + 3, (1to1k), dilution row 100, duplicate wells): 1.711 and 1.644 | ELISA plate reading of serum (bleed 2Y + 3, (1to1k), dilution row 200, duplicate wells): 1.518 and 1.488 | ELISA plate reading of serum (bleed 2Y + 3, (1to1k), dilution row 400, duplicate wells): 1.317 and 1.263 | ELISA plate reading of serum (bleed 2Y + 3, (1to1k), dilution row 3,200, duplicate wells): 0.435 and 0.430 | Immunogenicity (titers) 1′ Conc. 1: (bleed 3Y + 1, (1to1k)): 64000 | ELISA plate reading of serum (bleed 3Y + 1, (1to1k), dilution 800, duplicate wells, bleed 3Y + 1): 1.176 and 1.158 | ELISA plate reading of serum (bleed 3Y + 1, (1to1k), dilution 1,600, duplicate wells, bleed 3Y + 1): 0.801 and 0.729 | ELISA plate reading of serum (bleed 3Y + 1, (1to1k), dilution 6,400, duplicate wells, bleed 3Y + 1): 0.219 and 0.206 | ELISA plate reading of serum (bleed 3Y + 1, (1to1k), dilution row 100, duplicate wells, bleed 3Y + 1): 1.928 and 1.945 | ELISA plate reading of serum (bleed 3Y + 1, (1to1k), dilution row 200, duplicate wells, bleed 3Y + 1): 1.823 and 1.707 | ELISA plate reading of serum (bleed 3Y + 1, (1to1k), dilution row 400, duplicate wells, bleed 3Y + 1): 1.516 and 1.458 | ELISA plate reading of serum (bleed 3Y + 1, (1to1k), dilution row 3,200, duplicate wells, bleed 3Y + 1): 0.438 and 0.427 | Immunogenicity (titers) 1′ Conc. 1: (bleed 3Y + 2, (1to1k)): 64000 | ELISA plate reading of serum (bleed 3Y + 2, (1to1k), dilution 800, duplicate wells, bleed 3Y + 2): 1.412 and 1.389 | ELISA plate reading of serum (bleed 3Y + 2, (1to1k), dilution 1,600, duplicate wells, bleed 3Y + 2): 0.961 and 0.874 | ELISA plate reading of serum (bleed 3Y + 2, (1to1k), dilution 6,400, duplicate wells, bleed 3Y + 2): 0.262 | ELISA plate reading of serum (bleed 3Y + 2, (1to1k), dilution row 100, duplicate wells, bleed 3Y + 2): 2.313 and 2.334 | ELISA plate reading of serum (bleed 3Y + 2, (1to1k), dilution row 200, duplicate wells, bleed 3Y + 2): 2.188 and 2.048 | ELISA plate reading of serum (bleed 3Y + 2, (1to1k), dilution row 400, duplicate wells, bleed 3Y + 2): 1.819 and 1.749 | ELISA plate reading of serum (bleed 3Y + 2, (1to1k), dilution row 3,200, duplicate wells, bleed 3Y + 2): 0.526 and 0.512 | Immunogenicity (titers) 1′ Conc. 1: (bleed 3Y + 3, (1to1k)): 64000 | ELISA plate reading of serum (bleed 3Y + 3, (1to1k), dilution 800, duplicate wells): 1.445 and 1.468 | ELISA plate reading of serum (bleed 3Y + 3, (1to1k), dilution 1,600, duplicate wells): 0.909 and 0.999 | ELISA plate reading of serum (bleed 3Y + 3, (1to1k), dilution 6,400, duplicate wells): 0.257 | ELISA plate reading of serum (bleed 3Y + 3, (1to1k), dilution row 100, duplicate wells): 2.427 and 2.406 | ELISA plate reading of serum (bleed 3Y + 3, (1to1k), dilution row 200, duplicate wells): 2.130 and 2.275 | ELISA plate reading of serum (bleed 3Y + 3, (1to1k), dilution row 400, duplicate wells): 1.819 and 1.892 | ELISA plate reading of serum (bleed 3Y + 3, (1to1k), dilution row 3,200, duplicate wells): 0.532 and 0.547

KLLSLIKGVIVHRLEGVEGPSLYRCMISYGGADYKRITVK (KLLSLIKGVIVHRLEGVEGPSLYRCMISYGGADYKRITVK-NH2) [PD-L1(95)]
Immunogenicity (titers) 1′ Conc. 1: (Balb/c mice, bleed 1Y + 3): 100 | Immunogenicity (titers) 1′ Conc. 1: (Balb/c mice, bleed 2Y + 1): 12800 | Immunogenicity (titers) 1′ Conc. 1: (Balb/c mice, bleed 2Y + 2): 64000 | Immunogenicity (titers) 1′ Conc. 1: (Balb/c mice, bleed 2Y + 3): 64000 | Immunogenicity (titers) 1′ Conc. 1: (Balb/c mice, bleed 3Y + 1): 128000 | Immunogenicity (titers) 1′ Conc. 1: (Balb/c mice, bleed 3Y + 2): 128000 | Immunogenicity (titers) 1′ Conc. 1: (Balb/c mice, bleed 3Y + 3): 128000
